According to US20070021451A1, “Method for preventing or treating neurologic damage after spinal cord injury” (HAMAMATSU UNIVERSITY SCHOOL OF MEDICINE, priority 2005, published 2007):

Experiments:
[1] = tested on: Rabbit Model of Spinal Cord Ischemia; assay: TUNEL staining of motor neurons (mid lumbar segment); assay type: in vivo, New Zealand White rabbits; details: NS-7 15 minutes before ischemia or at the onset of reperfusion; P<0.05 vs control (FIG. 6)
Experimental: Twenty-six male New Zealand White rabbits weighting 2.2 to 3.0 kg were used in this experiment. Spinal cord ischemia was induced by occluding the abdominal aorta with […] for 20 minutes just distal to the renal arteries. Surgical preparation was conducted according to the method described in the literature, Terada H. et. al., J. Thorac. Cardiovasc. Surg. 2001; 122: 979-85. A 24-gauge venous catheter was placed in the marginal ear vein for drug administration. The rabbits were anesthetized with intravenous sodium pentobarbital (25 mg/kg) and allowed to breathe spontaneously. Lidocaine (0.5%) was administered at the site of the skin incision as local anesthesia. The left common carotid artery was cannulated with a 24-gauge catheter for monitoring the arterial pressure. Core body temperature was continuously monitored with a rectal probe and was maintained at 38.5° C. with the aid of heating lamp. The infrarenal abdominal aorta was exposed through a transperitoneal approach. […] The number of motor neurons that were positive in TUNEL staining was counted in 3 sections, and the values were averaged (Sakurai M., J. Thorac. Cardiovasc. Surg. 2000; 120: 1148-57, Lang-Lazdunski L., J. Vasc. Surg. 2003; 38: 564-75). […]

[2] = tested on: Rabbit Model of Spinal Cord Ischemia; assay: Histopathologic examination (HE staining, semiquantitative histologic score); assay type: in vivo, New Zealand White rabbits
Experimental: Twenty-six male New Zealand White rabbits weighting 2.2 to 3.0 kg were used in this experiment. Spinal cord ischemia was induced by occluding the abdominal aorta with […] for 20 minutes just distal to the renal arteries. Surgical preparation was conducted according to the method described in the literature, Terada H. et. al., J. Thorac. Cardiovasc. Surg. 2001; 122: 979-85. A 24-gauge venous catheter was placed in the marginal ear vein for drug administration. The rabbits were anesthetized with intravenous sodium pentobarbital (25 mg/kg) and allowed to breathe spontaneously. Lidocaine (0.5%) was administered at the site of the skin incision as local anesthesia. The left common carotid artery was cannulated with a 24-gauge catheter for monitoring the arterial pressure. Core body temperature was continuously monitored with a rectal probe and was maintained at 38.5° C. with the aid of heating lamp. The infrarenal abdominal aorta was exposed through a transperitoneal approach. After systemic heparinization (200 U/kg), spinal cord ischemia was induced by occluding the abdominal aorta with […] for 20 minutes just distal to the renal arteries and just above the aortic bifurcation. Then, the […] released, and the flank was closed. […] The rabbits were assigned randomly to 1 of the 4 groups and subjected to the treatment of (1) above in the following manner. The sham group (n=3) underwent the same operation without aortic occlusion. The control group (n=7) received saline (1 ml) intravenously 15 minutes before aortic occlusion. NS-7 (1 mg/kg) was administered intravenously as a bolus dose 15 minutes before aortic occlusion in group A (n=8) or just after releasing the […] onset of reperfusion) in group B (n=8). All animals were killed by means of a lethal injection of pentobarbital (200 mg/kg) 48 hours after operation. Spinal cords were quickly harvested and sectioned from the low thoracic level to the low lumbar level into the following 4 segments: low thoracic (LT=T10-T12), upper lumbar (UL=L1-L2), mid lumbar (ML=L3-L4), and low lumbar (LL=L5-L6). […]

Cc1cc(-c2ccc(F)cc2)cc(OCCCCCN2CCCCC2)n1.Cl [NS-7, 4-(4-Fluorophenyl)-2-methyl-6-(5-piperidinopentyloxy)pyridine hydrochloride]
Total number of apoptotic (TUNEL-positive) motor neurons [1]: strongly reduced
Cellular damage in HE-stained sections (FIG. 3) ([2]; NS-7 before ischemia or at the onset of reperfusion, mid lumbar): minimal evidence of cellular damage
Histologic changes in the spinal cords ([2]; group A or group B, mid lumbar and low lumbar levels): only slight changes
Average histologic scores ([2]; group A or group B, mid lumbar and low lumbar levels, vs control group (FIG. 4)): significantly lower than those of the control group
